{"source": "patent US11603343B2", "about": "“Inhibition of DYRK1A kinase” (Ankh Life Sciences Limited, priority 2020, dated 2023)", "molecular_target": "T1, human DYRK1A (Homo sapiens, UniProt Q13627)", "T1 construct": "host or cells: E. coli BL21(DE3)", "assay": "ELISA DYRK1A non-radioactive phosphorylation assay (HT-PRD substrate)", "assay_type": "biochemical", "method": "In order to determine the effectiveness of the DYRK1A inhibitors of the invention, a series of ELISA assays were performed, along with Western Blot assays.\nThe ELISA assays were devised as a modified form of the assay described in Liu et al. “An ELISA DYRK1A non-radioactive assay suitable for the characterization of inhibitors,” F1000Research 2017, 6:42 (doi: 10.12688/f1000research.10582.1), incorporated by reference herein in its entirety.\nSpecifically, human DYRK1A (Addgene #38913) and HT-PRD (Addgene #87755) plasmids were obtained from Addgene and were expressed and purified using Ni affinity chromatography, as explained below. Proteins were quantified by the conventional Bradford method and stored at −80° C. until used.\nHT-PRD was diluted in dilution buffer (25 mM Tris-HCl, pH 7.4 and 100 mM NaCl) to 4 ng/μL and used to coat a 96-well plate (BD Falcon #353072) with 100 μL per well at 4° C. overnight.\nThe wells were next washed with dilution buffer 3 times to remove unbound materials, and then the wells were blocked with 150 μL blocking buffer (2% BSA, 1×PBS, and 0.25% Tween 20) at room temperature for 60 minutes with shaking on a shaker.\nAfter the 60-minute shaking period, the wells were washed thoroughly with dilution buffer 3 times to prepare for the phosphorylation in the next step.\nDuplicate DYRK1A phosphorylation reactions were performed in the wells with 100 μL reaction mixtures each containing 25 mM HEPES, pH 7.4, 100 mM NaCl, 5 mM MgCl2, 100 μM ATP, 1% DMSO, and 200 ng/mL DYRK1A. Separate reaction mixtures included a no-inhibitor DMSO control, harmine inhibitor, and different concentrations of the inhibitors of the present invention. The plate was left on a temperature-controlled shaker for 30 minutes at 30° C.\nThe phosphorylation reactions were terminated after the 30-minute shaking, by the addition of 20 mM EDTA. The wells were then washed with PBST (0.02% Tween 20).\nHT-PRD phosphorylation was determined by the sandwich antibody staining protocol. […] The extent of the phosphorylation reactions was monitored at λ=405 nm. […]", "key": {"[1]": {"conditions": "tested at 5 μg/mL, significantly greater than DMSO and any of the other fractions at the same level of use (FIG. 1)"}}, "data": [{"smiles": "COc1ccc2c3c([nH]c2c1)C(C)=NCC3", "note": "[harmaline, reference compound]", "values": [{"measurement": "inhibition of DYRK1A", "setting": "reference inhibitor, text says 100 μg/mL, sample table lists harmine 2 μM and 10 μM (FIG. 1)", "value": "showed inhibition of DYRK1A"}]}, {"smiles": "Cc1c(O)cc(C(C)C)c(O)c1Cc1cc(O)c(C(C)C)cc1O", "note": "[compound XVIII]", "values": [{"measurement": "inhibition of DYRK1A", "setting": "[1]", "value": "very pronounced inhibition of DYRK1A"}]}, {"smiles": "Cc1c(O)cc(C(C)C)c(O)c1CC1=CC(=O)C(C(C)C)=CC1=O", "note": "[compound XVII]", "values": [{"measurement": "inhibition of DYRK1A", "setting": "[1]", "value": "very pronounced inhibition of DYRK1A"}]}]}
